In patent US20170253601A1, “Substituted Pyrrolidine Compounds” (EPIZYME, INC., priority 2014, published 2017) one finds IC50 data, which are given here for 32 compounds.

pIC50: −log10 of the molar value.

Broadly, the IC50 is the concentration needed to halve the response being measured. By pIC50 is commonly meant −log10 of the IC50, conventionally taken in molar units.

T1 sequence (Q9NRG4 whole entry): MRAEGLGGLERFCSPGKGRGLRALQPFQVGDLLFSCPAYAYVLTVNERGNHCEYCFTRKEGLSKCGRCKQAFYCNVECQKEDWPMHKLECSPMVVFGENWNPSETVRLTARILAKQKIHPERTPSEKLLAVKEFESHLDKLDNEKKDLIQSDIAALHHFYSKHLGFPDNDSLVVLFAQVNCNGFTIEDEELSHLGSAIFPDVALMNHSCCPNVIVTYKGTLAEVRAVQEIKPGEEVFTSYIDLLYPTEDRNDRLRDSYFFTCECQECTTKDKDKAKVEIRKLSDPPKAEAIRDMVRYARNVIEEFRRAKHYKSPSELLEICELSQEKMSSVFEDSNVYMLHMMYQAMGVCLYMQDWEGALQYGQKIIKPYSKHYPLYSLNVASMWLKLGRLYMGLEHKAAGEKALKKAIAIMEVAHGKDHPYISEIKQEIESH

The first assay addresses T1, SMYD2 (Homo sapiens, UniProt Q9NRG4).
T1 construct: Full length SMYD2 (NP 064582.2) was cloned; His6 (N, cleaved yes); FLAG (N); made in house; host or cells: Sf9 insect cells
The experiment in a line: SMYD2 Biochemical Assay (3H-SAM, biotinylated peptide substrate, Flashplate). The conditions noted are these: IC50 values are an average of n = 1 to n = 50; read-out: SMYD2 Biochem IC50 (μM)*. The method, boiled down: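 Full-length His/FLAG-tagged SMYD2 expressed in Sf9 cells with tag cleaved, 1.5 nM, pre-incubated 30 min at room temperature with compound, then 10 nM 3H-SAM and 60 nM biotinylated peptide added. Buffer 20 mM Bicine pH 7.6, 1 mM TCEP, 0.005% BSG, 0.002% Tween20, 2% DMSO. Stopped with 600 uM cold SAM; 3H-peptide captured on streptavidin Flashplate; IC50 by curve fit.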
As to `C[C@H]1CN(Cc2ccnn2C)C[C@H]1NC(=O)c1cc(C2CC2)on1` (racemic) [compound 306, (±)-cis-5-cyclopropyl-N-{4-methyl-1-[(1-methyl-1H-pyrazol-5-yl)methyl]pyrrolidin-3-yl}-1,2-oxazole-3-carboxamide], the IC50 was 41.2 µM. `C[C@@H]1CN(CCC2CCNCC2)C[C@H]1NC(=O)c1cc(C2CC2)on1` (racemic) [compound 133, (±)-trans-5-cyclopropyl-N-[4-methyl-1-[2-(piperidin-4-yl)ethyl]pyrrolidin-3-yl]-1,2-oxazole-3-carboxamide]: the IC50 was over 50 µM. As to `C[C@H]1CN(Cc2cc3ccccc3s2)C[C@H]1NC(=O)c1cc(C2CC2)on1` (racemic) [compound 195, (±)-cis-N-[1-(1-benzothiophen-2-ylmethyl)-4-methyl-pyrrolidin-3-yl]-5-cyclopropyl-1,2-oxazole-3-carboxamide], the IC50 is 33.4 µM. Turning to `CC(C)[C@@H]1CN(C)C[C@@H]1NC(=O)c1cc(C2CC2)on1` (racemic) [compound 218, (±)-cis-5-cyclopropyl-N-[1-methyl-4-(propan-2-yl)pyrrolidin-3-yl]-1,2-oxazole-3-carboxamide], the IC50 was found to be 37.4 µM. Consider `C[C@H]1CN(c2ccc(Cl)cc2)C[C@H]1NC(=O)c1cc(C2CC2)on1` (racemic) [compound 273, (±)-cis[N-[1-(4-chloro-phenyl)-4-methyl-pyrrolidin-3-yl]-5-cyclopropyl-1,2-oxazole-3-carboxamide], for which the IC50 was over 50 µM.

As for `C[C@@H]1CN(c2ccncn2)C[C@H]1NC(=O)c1cc(C2CC2)on1` (racemic) [compound 316, (±)-trans-5-cyclopropyl-N-[4-methyl-1-(pyrimidin-4-yl)pyrrolidin-3-yl]-1,2-oxazole-3-carboxamide], the IC50 is over 50 µM. In the case of `COc1cccc(N2C[C@H](C)[C@H](NC(=O)c3cc(C4CC4)on3)C2)c1` (racemic) [compound 280, (±)-cis-5-cyclopropyl-N-[1-(3-methoxyphenyl)-4-methylpyrrolidin-3-yl]-1,2-oxazole-3-carboxamide], the IC50 was over 50 µM. `C[C@@H]1CN(c2ccc(Cl)cc2)C[C@H]1NC(=O)c1cc(C2CC2)on1` (racemic) [compound 298, (±)-trans-N-[1-(4-chloro-phenyl)-4-methyl-pyrrolidin-3-yl]-5-cyclopropyl-1,2-oxazole-3-carboxamide]: the IC50 is over 50 µM. Consider `CC(C)N1C[C@@H](NC(=O)c2cc(C3CC3)on2)C[C@@H]1COCC#CC1CCCCC1` (stereo in doubt) [compound 236, (±)-trans-N-[5-{[(3-cyclo-hexylprop-2-yn-1-yl)oxy]methyl}-1-(propan-2-yl)pyrrolidin-3-yl]-5-cyclopropyl-1,2-oxazole-3-carboxamide], for which the IC50 was over 50 µM.

With `C[C@H]1CN(c2ccncc2)C[C@H]1NC(=O)c1cc(C2CC2)on1` (racemic) [compound 319, (±)-cis-5-cyclopropyl-N-[4-methyl-1-(pyridin-4-yl)pyrrolidin-3-yl]-1,2-oxazole-3-carboxamide], the IC50 was over 50 µM. As to `C[C@H]1CN(CC(N)=O)C[C@H]1NC(=O)c1cc(C2CC2)on1` (racemic) [compound 303, (±)-cis-N-[1-(carbamoyl-methyl)-4-methyl-pyrrolidin-3-yl]-5-cyclo-propyl-1,2-oxazole-3-carboxamide], the IC50 is over 50 µM.

With `CC(C)[C@H]1CN(C)C[C@@H]1NC(=O)c1cc(C2CC2)on1` (racemic) [compound 177, (±)-trans-5-cyclopropyl-N-[1-methyl-4-(propan-2-yl)pyrrolidin-3-yl]-1,2-oxazole-3-carboxamide], the IC50 is over 50 µM. On the same count and under the same terms, then `C[C@H]1CN(CCO)C[C@H]1NC(=O)c1cc(C2CC2)on1` (racemic) [compound 276, (±)-cis-5-cyclopropyl-N-[1-(2-hydroxyethyl)-4-methylpyrrolidin-3-yl]-1,2-oxazole-3-carboxamide], with 5.85 µM.

Take `CC(C)N1C[C@@H](C)[C@H](NC(=O)c2cc(C(C)(C)C)on2)C1` (racemic) [compound 200, (±)-trans-5-tert-butyl-N-[4-methyl-1-(propan-2-yl)pyrrolidin-3-yl]-1,2-oxazole-3-carboxamide]: the IC50 is over 50 µM. Turning to `CC(C)CCN1C[C@H](C)[C@H](NC(=O)c2cc(C3CC3)on2)C1` (racemic) [compound 213, (±)-cis-5-cyclopropyl-N-[4-methyl-1-(3-methylbutyl)pyrrolidin-3-yl]-1,2-oxazole-3-carboxamide], the 50% inhibitory concentration (IC50) was 1.62 µM. For `CC(C)N1C[C@@H](C)[C@H](NC(=O)c2cc(C3CC3)on2)C1` (racemic) [compound 191, (±)-trans-5-cyclopropyl-N-[4-methyl-1-(propan-2-yl)pyrrolidin-3-yl]-1,2-oxazole-3-carboxamide], the IC50 was determined as 40.3 µM. For the compound `CC[C@H]1CN(C(C)C)C[C@H]1NC(=O)c1cc(C2CC2)on1` (racemic) [compound 188, (±)-cis-5-cyclopropyl-N-[4-ethyl-1-(propan-2-yl)pyrrolidin-3-yl]-1,2-oxazole-3-carboxamide], the IC50 worked out at 15.9 µM. Turning to `C[C@@H]1CN(CC(N)=O)C[C@H]1NC(=O)c1cc(C2CC2)on1` (racemic) [compound 310, (±)-trans-N-[1-(carbamoylmethyl)-4-methylpyrrolidin-3-yl]-5-cyclopropyl-1,2-oxazole-3-carboxamide], the IC50 is over 50 µM. The same measure, in the same setting: to `Cc1nc[nH]c1CN1C[C@@H](C)[C@H](NC(=O)c2cc(C3CC3)on2)C1` (racemic) [compound 173, (±)-trans-5-cyclopropyl-N-[4-methyl-1-[(4-methyl-1H-imidazol-5-yl)methyl]pyrrolidin-3-yl]-1,2-oxazole-3-carboxamide] belongs over 50 µM; to `C[C@@H]1CN(c2ccnc(N)n2)C[C@H]1NC(=O)c1cc(C2CC2)on1` (racemic) [compound 314, (±)-trans-N-[1-(2-amino-pyrimidin-4-yl)-4-methylpyrrolidin-3-yl]-5-cyclopropyl-1,2-oxazole-3-carboxamide], over 50 µM; to `C[C@@H]1CN(c2ccccc2)C[C@H]1NC(=O)c1cc(C2CC2)on1` (racemic) [compound 296, (±)-trans-5-cyclopropyl-N-(4-methyl-1-phenyl-pyrrolidin-3-yl)-1,2-oxazole-3-carboxamide], over 50 µM. As for `C[C@H]1CN(CC2CC2)C[C@H]1NC(=O)c1cc(C2CC2)on1` (racemic) [compound 162, (±)-cis-5-cyclopropyl-N-[1-(cyclopropylmethyl)-4-methylpyrrolidin-3-yl]-1,2-oxazole-3-carboxamide], the IC50 is 1.42 µM.

For `C[C@H]1CN(c2cccc(Cl)c2)C[C@H]1NC(=O)c1cc(C2CC2)on1` (racemic) [compound 307, (±)-cis-N-[1-(3-chlorophenyl)-4-methylpyrrolidin-3-yl]-5-cyclopropyl-1,2-oxazole-3-carboxamide], the IC50 is over 50 µM.

Staying with this assay, now noted: Table 1; average of n = 1 to n = 50; read-out: SMYD2 Biochem IC50.
Take `CCc1cc(C(=O)N[C@@H]2CN(C3CC3)C[C@@H]2C)no1` (racemic) [compound 112, (±)-cis-N-(1-cyclopropyl-4-methylpyrrolidin-3-yl)-5-ethyl-isoxazole-3-carboxamide]: the pIC50 was 5.03. Same read-out and setting: to `O=C(NC1CCN(C2CC2)C1)c1cc(C2CC2)on1` (centres unmarked) [compound 36, 5-cyclopropyl-N-(1-cyclopropylpyrrolidin-3-yl)isoxazole-3-carboxamide] belongs 4.49.

Staying with this assay, now noted: Table 2; average of n = 1 to n = 50; read-out: SMYD2 Biochem IC50.
For `C[C@@H]1CN(Cc2cccnc2)C[C@H]1NC(=O)c1cc(C2CC2)on1` (racemic) [compound 84, (±)-trans-5-cyclopropyl-N-(4-methyl-1-(pyridin-3-ylmethyl)pyrrolidin-3-yl)isoxazole-3-carboxamide], the pIC50 was under 4.30. For the compound `C[C@@H]1CN(C(=O)CC2CCNCC2)C[C@@H]1NC(=O)c1cc(C2CC2)on1` (racemic) [compound 71, (±)-cis-5-cyclopropyl-N-(4-methyl-1-(2-(piperidin-4-yl)acetyl)pyrrolidin-3-yl)isoxazole-3-carboxamide], the pIC50 was under 4.30. With `C[C@@H]1CN(C2CCCCC2)C[C@@H]1NC(=O)c1cc(C2CC2)on1` (racemic) [compound 72, (±)-cis-N-(1-cyclohexyl-4-methylpyrrolidin-3-yl)-5-cyclopropylisoxazole-3-carboxamide], the pIC50 was 4.74. Turning to `C[C@H]1CN(C(=O)CO)C[C@@H]1NC(=O)c1cc(C2CC2)on1` (racemic) [compound 93, (±)-trans-5-cyclopropyl-N-(1-(2-hydroxyacetyl)-4-methylpyrrolidin-3-yl)isoxazole-3-carboxamide], the pIC50 is under 4.30. Still for that read-out and setting: then `C[C@@H]1CN(C(=O)CO)C[C@@H]1NC(=O)c1cc(C2CC2)on1` (racemic) [compound 69, (±)-cis-5-cyclopropyl-N-(1-(2-hydroxyacetyl)-4-methylpyrrolidin-3-yl)isoxazole-3-carboxamide], with under 4.30; and `C[C@H]1CN(S(=O)(=O)C2CCNCC2)C[C@@H]1NC(=O)c1cc(C2CC2)on1` (racemic) [compound 91, (±)-trans-5-cyclopropyl-N-(4-methyl-1-(piperidin-4-ylsulfonyl)pyrrolidin-3-yl)isoxazole-3-carboxamide], with under 4.30; and `CC(C)N1C[C@H](C)[C@H](NC(=O)c2cc(C3CC3)on2)C1` (racemic) [compound 65, (±)-cis-5-cyclopropyl-N-(1-isopropyl-4-methylpyrrolidin-3-yl)isoxazole-3-carboxamide], with 5.62.
